# Data from patent US5411984A, “Water soluble analogs and prodrugs of taxol” (Virginia Tech Intellectual Properties, Inc., priority 1992, dated 1995).
# Assays:
# [1] = Magri and Kingston; cited from earlier work
# [2] = cited from earlier work
# [3] = cited from earlier work; remark: listed apart in the source
# P-388 = settings: cited from earlier work
# [4] = Deutsch et al.; cited from earlier work
# [5] = Relative solubility by the 1-octanol and water partition method (UV absorption at 228 nm), taxol = 1
# Experimental: In separate experiments, taxol derivative 4 and 2'-succinyl taxol (R=NaO2 CCH2 CH2 CO2) were dissolved in a mildly basic aqueous solution.
# *Solubilities were determined by using the 1octanol and water partition
# method.Sample concentrations in water were determined by UV absorptions a […]
# [6] = tested on: drug-refractory ovarian cancer; settings: in vivo; cited from earlier work
# metastatic breast cancer = settings: in vivo; cited from earlier work
# [7] = Cremophor EL diluent, without prolonged infusion and premedication with antiallergic drugs; cited from earlier work
# tubulin = settings: cited from earlier work
# [8] = Stability in pH 5 buffer / mildly acidic aqueous solution (HPLC or TLC, onset of cloudiness); type: physicochemical; settings: method (b): 0.5 mg in 0.1 ml EtOH and 0.9 ml pH 5 buffer, room temperature
# Experimental: **Stabilities were determined in pH 5 buffer solution by one of the two
# methods indicated below.
# (a) 9.5 mg of sample was dissolved in 0.2 ml of EtOH and 0.2 ml of pH 5
# buffer solution and let stand at room temperature. The progress of
# decomposition was checked by HPLC or TLC and observation of the onset of
# (b) 0.5 mg of sample was dissolved in 0.1 ml of EtOH and 0.9 ml of pH 5
# buffer solution, the other conditions were the same as in (a) above. All
# samples were stable under these conditions for at least 24 hours. No
# hydrolysis was detectable by HPLC or TLC during this time period.
# Solubility in pure water = type: physicochemical
# [9] = cited from earlier work; remark: listed apart in the source
compound,measurement,setting,value
CC(=O)O[C@H]1C(=O)[C@@]2(C)[C@H]([C@H](OC(=O)c3ccccc3)[C@]3(O)C[C@H](OC(=O)[C@H](O[Si](C)(C)C(C)(C)C)[C@@H](NC(=O)c4ccccc4)c4ccccc4)C(C)=C1C3(C)C)[C@]1(OC(C)=O)CO[C@@H]1C[C@@H]2O [2'-(t-butyldimethylsilyl) taxol],biological activity,[1],essentially inactive
"CC(=O)O[C@H]1C(=O)[C@@]2(C)[C@H]([C@H](OC(=O)c3ccccc3)[C@]3(O)C[C@H](OC(=O)[C@H](OC(=O)CCN)[C@@H](NC(=O)c4ccccc4)c4ccccc4)C(C)=C1C3(C)C)[C@]1(OC(C)=O)CO[C@@H]1C[C@@H]2O [Compound 1, 2'-(β-alanyl)-taxol]",in vivo activity,[2],active in vivo
same,aqueous solubility,[3],increased water solubility
"CC(=O)O[C@H]1C(=O)[C@@]2(C)[C@H]([C@H](OC(=O)c3ccccc3)[C@]3(O)C[C@H](OC(=O)[C@H](OC(=O)CCC(=O)O)[C@@H](NC(=O)c4ccccc4)c4ccccc4)C(C)=C1C3(C)C)[C@]1(OC(C)=O)CO[C@@H]1C[C@@H]2O [Compound 2, 2'-succinyltaxol]",P-388 in vivo activity compared with taxol,P-388,diminished
same,aqueous solubility,[3],increased water solubility
CC(=O)O[C@H]1C(=O)[C@@]2(C)[C@H]([C@H](OC(=O)c3ccccc3)[C@]3(O)C[C@H](OC(=O)[C@H](OC(=O)CCCC(=O)NCCCN(C)C)[C@@H](NC(=O)c4ccccc4)c4ccccc4)C(C)=C1C3(C)C)[C@]1(OC(C)=O)CO[C@@H]1C[C@@H]2O,antitumor activity,[4],good solubility and bioactivity
CC(=O)O[C@H]1C(=O)[C@@]2(C)[C@H]([C@H](OC(=O)c3ccccc3)[C@]3(O)C[C@H](OC(=O)[C@H](O)[C@@H](NC(=O)c4ccccc4)c4ccccc4)C(C)=C1C3(C)C)[C@]1(OC(C)=O)CO[C@@H]1C[C@@H]2O [Taxol],Relative Solubility (p'),[5],1
same,clinical activity against drug-refractory ovarian cancer,[6],excellent clinical activity
same,clinical activity in metastatic breast cancer,metastatic breast cancer,active drug
same,allergic reactions,[7],severe allergic reactions and even death
same,effect on depolymerization of tubulin,tubulin,prevents depolymerization of the tubulin
same,effect on microtubule / tubulin polymer formation,tubulin,promotes formation of microtubules
same,aqueous solubility,[3],low water solubility
"CC(=O)O[C@H]1C(=O)[C@@]2(C)[C@H]([C@H](OC(=O)c3ccccc3)[C@]3(O)C[C@H](OC(=O)[C@H](OC(=O)c4cc(C(=O)O)c(C(=O)O)cc4C(=O)O)[C@@H](NC(=O)c4ccccc4)c4ccccc4)C(C)=C1C3(C)C)[C@]1(OC(C)=O)CO[C@@H]1C[C@@H]2O [Compound 9b, Taxol 2'-(trisodium 1,2,4,5-benzenetetracarboxylate)]",times more water soluble than taxol,[5]; compared with taxol,more than 1500 times
same,Stabilities at pH 5,[8],> 24 h
same,solubility,Solubility in pure water,> 227 mg/mL
"CC(=O)O[C@H]1C(=O)[C@]2(C)[C@@H](OC(C)=O)C[C@H]3OC[C@@]3(OC(C)=O)[C@H]2[C@H](OC(=O)c2ccccc2)[C@]2(O)C[C@H](OC(=O)[C@H](OC(C)=O)[C@@H](NC(=O)c3ccccc3)c3ccccc3)C(C)=C1C2(C)C [2',7-diacetyltaxol]",hydrolysis of acyl substituents under in vivo conditions,[9],readily hydrolyzed
